Test results taken from patent US12446577B2 (priority 2018, dated 2025).
Read-outs that look alike come from different tables or passages of the source.

Legend:
Plasmopara viticola = Plasmopara viticola grapevine leaf disc test; format: in vivo
Procedure: A stock solution of choline pelargonate (29.1% PLA and 40.4% Choline hydroxide, pH 8.82) was made by mixing 14.55 mL PLA with 15.25 mL distilled water and afterwards the addition of 20.2 mL of Choline hydroxide. The choline pelargonate stock solution (42.04%) was diluted in order to create a solution with a final concentration of choline pelargonate equal to 1 mL/L and 10 mL/L. The two choline pelargonate solutions, water as negative control and copper hydroxide (2 g/L) as positive control were used for this test. For each object 4 Petri plates were prepared and each plate contains 5 grapevine leaf discs (see Table 8 below).
Leaf discs preparation: leaf discs (diameter 19 mm) were prepared from grapevine cuttings (variety Pinot Nero Entav 115) using the young leaves. 5 leaf discs were placed in each Petri Plate on autoclaved paper (4 layers), the paper was previously wetted by adding 8.5 mL of sterile water in each plate. The leaf discs were placed on the paper with the abaxial side upward.
Test products application and pathogen inoculation: leaf discs were treated with the test products at 11.30 A.M (i.e. a preventive application) and the leaves were allowed to dry. The products were sprayed with a small hand sprayer; 5 sprays were applied on each plate. The same day at 16.30 a suspension of P. viticola spores at final concentration of 2*10^5 spore/mL was applied (5 hours after test product application) on the leaf discs. The inoculated plates were incubated overnight in the dark at 25° C. The following day, the leaf discs were dried under the laminar flow and then placed back at 25° C. The disease assessment was done 7 days after the artificial inoculation.

Alternaria solani = assay: Mycelium growth inhibition on PDA (Example 2); format: cell-based; details: 6 days at 25° C; for Average mycellium diameter: n = 4; for % inhibition of the pathogens: vs untreated PDA
Procedure: (§1) Strains used for this trial (Table 3) were kept and refreshed on Potato Dextrose Agar (PDA) at 25° C.
(§2) In a first setup, a test composition was directly added to PDA (about 20 mL/petri dish) (Table 4). Plugs of agar (diameter 8 mm) from two week-old cultures were placed at the center of the PDA plates. Each test was performed in 4 repetitions. The petri dishes were then incubated at 25° C. After 6 days of incubation, the diameter of the colonies was measured in 2 perpendicular directions. The percentage of inhibition was calculated for each tested composition and compared to the untreated PDA.

Colletotrichum coccodes = assay: Mycelium growth inhibition on PDA (Example 2); format: cell-based; details: 6 days at 25° C; for Average mycellium diameter: n = 4; for % inhibition of the pathogens: vs untreated PDA
Procedure: as §1, §2

[1] = test system: Botrytis cinerea (grapevine); assay: Mycelium growth inhibition on PDA (Example 2); format: cell-based; details: 6 days at 25° C; for Average mycellium diameter: n = 4; for % inhibition of the pathogens: vs untreated PDA
Procedure: as §1, §2

[2] = test system: Botrytis cinerea (lettuce); assay: Mycelium growth inhibition on PDA (Example 2); format: cell-based; details: 6 days at 25° C; for Average mycellium diameter: n = 4; for % inhibition of the pathogens: vs untreated PDA
Procedure: as §1, §2

Phytophthora infestans = format: in vivo; details: 1 min dip, 7 days of incubation; for Lesion Size: n = 5
[3] = test system: Powdery Mildew (Podosphaera xanthii); assay: Single leaf test powdery mildew on zucchini; details: zucchini leaf N sprayed with 0.8% in water; 8 days after the treatment
Procedure: Single leaf test Powdery Mildew (Podosphaera xanthii). A zucchini plant was selected with a powdery mildew infection on old leaves. In addition to a leaf showing the first signs of infection of powdery mildew (leaf N−1), two leaves without infection (leaf N and N+1) were selected.
Leaves (N+1) and (N−1) were left untreated. The fungal infection was assessed 8 days after the treatment.

Pythium ultimum = assay: Mycelium growth inhibition on PDA (Example 7); format: cell-based; details: 3 days at 25° C; for Average mycelium diameter: n = 4
Procedure: (§3) Strains used for this trial were kept and refreshed on Potato Dextrose Agar (PDA) at 25° C.
(§4) To begin, a quantity of test product was directly added in a certain volume of PDA (about 20 mL/petri dish) (Table 11). Plugs of agar (diameter 10 mm) from one week-old cultures were placed at the centre of the PDA plates. Each object was performed in 4 repetitions. The petri dishes were then incubated at 25° C. in the dark. After 3 and 6 days of incubation, the diameter of the colonies was measured in 2 perpendicular directions. The percentage of inhibition was calculated for each product/concentration compare to the untreated.

Rhizoctonia solani = assay: Mycelium growth inhibition on PDA (Example 7); format: cell-based; details: 3 days at 25° C; for Average mycelium diameter: n = 4
Procedure: as §3, §4

Sclerotinia minor = assay: Mycelium growth inhibition on PDA (Example 7); format: cell-based; details: 3 days at 25° C; for Average mycelium diameter: n = 4
Procedure: as §3, §4

Botrytis cinerea = assay: Mycelium growth inhibition on PDA (Example 7); format: cell-based; details: 3 days at 25° C; for Average mycelium diameter: n = 4
Procedure: as §3, §4

Sclerotinia sclerotiorum = assay: Mycelium growth inhibition on PDA (Example 7); format: cell-based; details: 3 days at 25° C; for Average mycelium diameter: n = 4
Procedure: as §3, §4

Fusarium graminearum = format: cell-based; details: 6 days at 25° C; for Average mycellium diameter: n = 4; for % inhibition of the pathogens: vs untreated PDA
apple trees = assay: Phytotoxicity on apple trees in the powdery mildew trial; format: in vivo; details: repeated applications during the season, 10 mL/L
Description: During the third week of March 2017, 60 branched apple trees (rootstock M9—clone Golden B) of 2 years were transplanted from a local nursery into pots (pot: 12 Liters). The 60 potted apple plants were maintained outside the greenhouse in S. Michele all′Adige (Trento). Plants were maintained divided in 3 blocks. Each block was composed of 20 plants arranged in two rows (See scheme 1). Plants were watered through a drip irrigation system once or twice a week according to the weather conditions. The insecticidal treatments were applied uniformly on all the experimental plants. Two of the three objects were treated against powdery mildew in accordance with the foreseen spray scheme: Chemical treatments, TMAP alone, untreated. One object was maintained Untreated as reference. For the “Chemical” object, different active ingredients were used alone or in combination (Table 13).
The treatments were performed at the same time, and timings of spray were done weekly and according to the weather conditions. The applications were done with a pressurized hand sprayer (water volume 1.5-2 L per object).

Bintje leaflets = assay: Phytotoxicity symptoms on dipped potato leaflets (Example 4); format: in vivo; details: highest concentration (10 L/ha), 7 days
[4] = dose rate 1 L·kg/ha (0.2 mL in 100 mL water)
[5] = dose rate 10 L·kg/ha (2 mL in 100 mL water)

## CCCCCCCCC(=O)[O-].C[N+](C)(C)CCO [Choline pelargonate, choline pelargonate]
Plasmopara viticola; 1 mL/L, preventive spray, 7 days after the artificial inoculation
  disease severity (level of sporulation): 5.3%
Plasmopara viticola; 10 mL/L, preventive spray, 7 days after the artificial inoculation
  disease severity: 0%
Plasmopara viticola; test repeated a second and a third time (data not shown)
  efficacy against P. viticola: comparable with the reference copper
Alternaria solani; 0.36% AI in PDA
  Average mycellium diameter: 0.0 ± 0.0 mm
  % inhibition of the pathogens: 100%
Alternaria solani; 3.6% AI in PDA
  Average mycellium diameter: 0.0 ± 0.0 mm
  % inhibition of the pathogens: 100%
Colletotrichum coccodes; 0.36% AI in PDA
  Average mycellium diameter: 0.0 ± 0.0 mm
  % inhibition of the pathogens: 100%
Colletotrichum coccodes; 3.6% AI in PDA
  Average mycellium diameter: 0.0 ± 0.0 mm
  % inhibition of the pathogens: 100%
[1]; 0.36% AI in PDA
  Average mycellium diameter: 0.0 ± 0.0 mm
  % inhibition of the pathogens: 100%
[1]; 3.6% AI in PDA
  Average mycellium diameter: 0.0 ± 0.0 mm
  % inhibition of the pathogens: 100%
[2]; 0.36% AI in PDA
  Average mycellium diameter: 0.0 ± 0.0 mm
  % inhibition of the pathogens: 100%
[2]; 3.6% AI in PDA
  Average mycellium diameter: 0.0 ± 0.0 mm
  % inhibition of the pathogens: 100%
Phytophthora infestans; [4]
  Efficacy (%) (Abbott): 84.9%
  Lesion Size: 0.41 ± 0.57 cm^2
Phytophthora infestans; [5]
  Efficacy (%) (Abbott): 100.0%
  Lesion Size: 0.00 ± 0.00 cm^2
[3]
  surface of leaf covered by powdery mildew: less than 5%
Pythium ultimum; 0.042% a.i. in PDA
  % efficacy compared to control (Abbott): 100%
  Average mycelium diameter: 0.0 ± 0.0 mm
Pythium ultimum; 0.42% a.i. in PDA
  % efficacy compared to control (Abbott): 100%
  Average mycelium diameter: 0.0 ± 0.0 mm
Rhizoctonia solani; 0.042% a.i. in PDA
  % efficacy compared to control (Abbott): 67%
  Average mycelium diameter: 17.1 ± 1.9 mm
Rhizoctonia solani; 0.42% a.i. in PDA
  % efficacy compared to control (Abbott): 100%
  Average mycelium diameter: 0.3 ± 0.5 mm
Sclerotinia minor; 0.042% a.i. in PDA
  % efficacy compared to control (Abbott): 96%
  Average mycelium diameter: 2.8 ± 4.3 mm
Sclerotinia minor; 0.42% a.i. in PDA
  % efficacy compared to control (Abbott): 99%
  Average mycelium diameter: 0.8 ± 0.9 mm
Botrytis cinerea; 0.042% a.i. in PDA
  % efficacy compared to control (Abbott): 98%
  Average mycelium diameter: 0.9 ± 1.8 mm
Botrytis cinerea; 0.42% a.i. in PDA
  % efficacy compared to control (Abbott): 100%
  Average mycelium diameter: 0.0 ± 0.0 mm
Sclerotinia sclerotiorum; 0.042% a.i. in PDA
  % efficacy compared to control (Abbott): 98%
  Average mycelium diameter: 1.4 ± 0.5 mm
Sclerotinia sclerotiorum; 0.42% a.i. in PDA
  % efficacy compared to control (Abbott): 100%
  Average mycelium diameter: 0.0 ± 0.0 mm
Fusarium graminearum; 0.36% AI in PDA
  Average mycellium diameter: 17.6 ± 21.1 mm
  % inhibition of the pathogens: 77%
Fusarium graminearum; 3.6% AI in PDA
  Average mycellium diameter: 0.0 ± 0.0 mm
  % inhibition of the pathogens: 100%
Apple trees
  symptoms of phytotoxicity on the plants: no symptoms of phytotoxicity
Bintje leaflets
  phytotoxicity symptoms on leaflets: some minor phytoxicity symptoms on the edge and stem
